Reference: ChEMBL document CHEMBL3792319, “Synthesis and antitubercular activity of 1,2,4-trisubstitued piperazines” (Bioorg Med Chem Lett, 2016)
In brackets after ≈: the same amount, converted by molar mass.

Experiments:
[1] = system: Mycobacterium tuberculosis; test: Antitubercular activity against Mycobacterium tuberculosis H37Rv measured after 7 days under aerobic condition; assay type: functional, organism-based; conditions: 168 h
[2] = system: Mycobacterium tuberculosis; test: Antimicrobial activity against Mycobacterium tuberculosis H37Rv expressing bacterial luciferase measured after 10 days under hypoxia condition by LORA assay; assay type: functional; conditions: 240 h
[3] = system: Mycobacterium tuberculosis; test: Antitubercular activity against Mycobacterium tuberculosis H37Rv expressing bacterial luciferase infected murine J774 macrophage cells assessed as reduction in cell count at 20 uM measured after 4 days by luminescence analysis; assay type: functional
[4] = system: Mycobacterium tuberculosis; test: Bactericidal activity against Mycobacterium tuberculosis H37Rv measured upto 21 days; assay type: functional; conditions: 504 h
[5] = system: Mycobacterium tuberculosis; test: Antitubercular activity against Mycobacterium tuberculosis H37Rv measured after 5 days under aerobic condition by two-fold serial dilution method; assay type: functional; conditions: 120 h
[6] = system: Mycobacterium tuberculosis; test: Antitubercular activity against Mycobacterium tuberculosis H37Rv expressing bacterial luciferase infected murine J774 macrophage cells assessed as reduction in cell count at 200 uM measured after 4 days by luminescence analysis; assay type: functional

Row | Structure (SMILES) | IC50 [1] [µM] | IC90 [1] [µM] | MIC [1] [µM] | MIC [2] [µM] | Activity [3] [log10CFU] | MBC [4] [µM] | MIC [5] [µM] | Activity [6] [log10CFU]
1 | CCC(C)[C@@H]1CN([C@H](CNC)Cc2ccccc2)CCN1CCC12CC3CC(CC(C3)C1)C2 (stereo partly drawn) | 20.2 | 35.5 | 50 (≈ 22.6 µg/mL) |  |  |  |  | 
2 | CNC[C@@H](Cc1ccccc1)N1CCN(CCC23CC4CC(CC(C4)C2)C3)[C@H](C(C)C)C1 | 20.7 | 37 | 50 (≈ 21.9 µg/mL) | 52.2 (≈ 22.8 µg/mL) | 2.22 | 114 (≈ 49.9 µg/mL) | 14 (≈ 6.13 µg/mL) | 
3 | CNC[C@@H](Cc1ccccc1)N1CCN(CCC(c2ccccc2)c2ccccc2)CC1 | 23 | > 61 | 52.3 (≈ 22.4 µg/mL) | > 200 | 2.4 | 20 (≈ 8.55 µg/mL) | 69 (≈ 29.5 µg/mL) | 2.4
4 | CNC[C@@H](Cc1ccccc1)N1CCN(CCC23CC4CC(CC(C4)C2)C3)CC1 | 38 | 99 | 61.2 (≈ 24.2 µg/mL) | 74 (≈ 29.3 µg/mL) | 0 | 100 (≈ 39.6 µg/mL) | 36 (≈ 14.2 µg/mL) | 2.7
5 | CCCC[C@H](CNC)N1CCN(CCC23CC4CC(CC(C4)C2)C3)[C@H](C(C)CC)C1 (stereo partly drawn) | 21.2 | 33.7 | 50 (≈ 20.9 µg/mL) |  |  |  |  | 
6 | CCC(C)[C@H](CNC)N1CCN(CCC23CC4CC(CC(C4)C2)C3)[C@H](CO)C1 (stereo partly drawn) |  | > 100 | > 100 |  |  |  |  | 
7 | CC[C@H](C)[C@@H]1CN([C@@H](CNC)Cc2ccccc2)CCN1CC(C)(C)C | 190 | > 200 | > 200 |  |  |  |  | 
8 | CCC(C)[C@@H](CNC)N1CCN(CCc2ccc(C)cc2)CC1 (stereo partly drawn) | 37 | 110 | 93.9 (≈ 29.8 µg/mL) |  |  |  |  | 
9 | CCC(C)[C@@H]1CN([C@@H](CNC)Cc2ccccc2)CCN1CCC12CC3CC(CC(C3)C1)C2 (stereo partly drawn) | 17 | 38 | 37.7 (≈ 17 µg/mL) | 9.8 (≈ 4.43 µg/mL) | 2.4 | 5 (≈ 2.26 µg/mL) | 41 (≈ 18.5 µg/mL) | 2.4
10 | CCCC[C@H](CNC)N1CCN(CCC23CC4CC(CC(C4)C2)C3)[C@H](C(C)C)C1 | 47.5 | 65.5 | 100 (≈ 40.4 µg/mL) |  |  |  |  | 
11 | CNC[C@@H](Cc1ccccc1)N1CCN(CC2CCC(C)CC2)[C@H](C(C)C)C1 (stereo partly drawn) |  | 85.5 | > 100 |  |  |  |  | 
12 | CCC(C)[C@H](CNC)N1CCN(CCc2c[nH]c3ccccc23)[C@H](C(C)C)C1 (stereo partly drawn) |  | > 100 | > 100 |  |  |  |  | 
13 | CCCC[C@@H](CNC)N1CCN(CCc2c[nH]c3ccccc23)[C@H](C(C)C)C1 |  | 85.3 | > 100 |  |  |  |  | 
14 | CNC[C@@H](Cc1ccccc1)N1CCN(CCC23CC4CC(CC(C4)C2)C3)[C@H](CO)C1 |  | 75.6 | > 100 |  |  |  |  | 
15 | CCCC[C@@H](CNC)N1CCN(CCC23CC4CC(CC(C4)C2)C3)[C@H](CO)C1 |  | 70.6 | > 100 |  |  |  |  | 
16 | CCCC[C@@H](CNC)N1CCN(CCC23CC4CC(CC(C4)C2)C3)[C@H](C(C)C)C1 | 51.8 | 61.4 | 100 (≈ 40.4 µg/mL) |  |  |  |  | 
17 | CCC(C)[C@H](CNC)N1CCN(CCC23CC4CC(CC(C4)C2)C3)[C@H](C(C)C)C1 (stereo partly drawn) | 37.4 | 99.5 | 100 (≈ 40.4 µg/mL) |  |  |  |  | 
18 | CCCC[C@@H](CNC)N1CCN(CCC23CC4CC(CC(C4)C2)C3)[C@H](C(C)CC)C1 (stereo partly drawn) | 29.6 | 54.2 | 100 (≈ 41.8 µg/mL) |  |  |  |  | 
19 | CNC[C@@H](CO)N1CCN(CCC(c2ccccc2)c2ccccc2)[C@H](CC2CCCCC2)C1 | 22 | 50 | 48.4 (≈ 22.4 µg/mL) |  |  |  |  | 
20 | CNC[C@H](Cc1ccccc1)N1CCN(CCC23CC4CC(CC(C4)C2)C3)[C@H](CO)C1 | 54.6 | 66.1 | 100 (≈ 42.6 µg/mL) |  |  |  |  | 
21 | CNCCN1CCN(CCC23CC4CC(CC(C4)C2)C3)[C@H](C(C)C)C1 |  | > 100 | > 100 |  |  |  |  | 
22 | CNC[C@@H](CO)N1CCN(CCc2ccc(C)cc2)[C@H](CC2CCCCC2)C1 | 67 | 160 | 200 (≈ 77.5 µg/mL) |  |  |  |  | 
23 | CNC[C@H](Cc1ccccc1)N1CCN(CCc2c[nH]c3ccccc23)[C@H](C(C)C)C1 |  | 88.1 | > 100 |  |  |  |  | 
24 | CNC[C@@H](CC(C)C)N1CCN(CCc2ccc(C)cc2)CC1 | > 200 | > 200 | > 200 |  |  |  |  | 
